Reference: PubChem BioAssay AID1845195 (Molecular Pharmacology Branch, DTP, NCI, 2023)

System: 156681-154-R-J1 tumor spheroid viability
Assay: Anticancer human tumor 156681-154-R-J1 patient-derived melanoma cell line growth inhibition
Details: spheroids with HUVEC and MSC; for IC50: curve of first compound; for viability, T/C: stronger effect = lower value
Summary of the method: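 Single agents and combinations were tested on spheroids built from tumor cells plus HUVEC and hMSC, at half-log dilutions starting at or near clinical Cmax, else 10 microM; final DMSO 0.25% (v/v).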
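Note: spheroids exposed to compounds for 7 days before readout.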
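Throughout, for viability, T/C: percent of vehicle control viability where 100% = DMSO-treated spheroids.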

What does the source list for `Cn1ncnc1[C@H]1c2n[nH]c(=O)c3cc(F)cc(c23)N[C@@H]1c1ccc(F)cc1` + COc1cc2c(cc1O)CCNC21CSC2c3c(OC(C)=O)c(C)c4c(c3C(COC1=O)N1C(O)C3Cc5cc(C)c(OC)c(O)c5C(C21)N3C)OCO4?
IC50 (second compound 30 pM): 1440 nM; IC50 (second compound 94.9 pM): 688 nM; IC50 (second compound 0.0003 µM): 97 nM; IC50 (second compound 0.000949 µM): < 9.49 nM; IC50 (second compound 0.003 µM): < 9.49 nM; viability, T/C (second compound 30 pM, first compound 0.00949 µM): 82%; viability, T/C (second compound 30 pM, first compound 0.03 µM): 91.7%; viability, T/C (second compound 30 pM, first compound 0.0949 µM): 97.9%; viability, T/C (second compound 30 pM, first compound 0.3 µM): 72.4%; viability, T/C (second compound 30 pM, first compound 0.949 µM): 70.9%; viability, T/C (second compound 30 pM, first compound 3 µM): 19.1%; viability, T/C (second compound 94.9 pM, first compound 0.00949 µM): 97.5%; viability, T/C (second compound 94.9 pM, first compound 0.03 µM): 80.7%; viability, T/C (second compound 94.9 pM, first compound 0.0949 µM): 91.9%; viability, T/C (second compound 94.9 pM, first compound 0.3 µM): 73.3%; viability, T/C (second compound 94.9 pM, first compound 0.949 µM): 40.8%; viability, T/C (second compound 94.9 pM, first compound 3 µM): 14%; viability, T/C (second compound 0.0003 µM, first compound 0.00949 µM): 48.5%; viability, T/C (second compound 0.0003 µM, first compound 0.03 µM): 53.7%; viability, T/C (second compound 0.0003 µM, first compound 0.0949 µM): 51%; viability, T/C (second compound 0.0003 µM, first compound 0.3 µM): 36.6%; viability, T/C (second compound 0.0003 µM, first compound 0.949 µM): 15.2%; viability, T/C (second compound 0.0003 µM, first compound 3 µM): 11.3%; viability, T/C (second compound 0.000949 µM, first compound 0.00949 µM): 10%; viability, T/C (second compound 0.000949 µM, first compound 0.03 µM): 4.38%; viability, T/C (second compound 0.000949 µM, first compound 0.0949 µM): 4.05%; viability, T/C (second compound 0.000949 µM, first compound 0.3 µM): 2.68%; viability, T/C (second compound 0.000949 µM, first compound 0.949 µM): 1%; viability, T/C (second compound 0.000949 µM, first compound 3 µM): 0.14%; viability, T/C (second compound 0.003 µM, first compound 0.00949 µM): 0.15%; viability, T/C (second compound 0.003 µM, first compound 0.03 µM): 0.14%; viability, T/C (second compound 0.003 µM, first compound 0.0949 µM): 0.55%; viability, T/C (second compound 0.003 µM, first compound 0.3 µM): 0.12%; viability, T/C (second compound 0.003 µM, first compound 0.949 µM): 0.13%; viability, T/C (second compound 0.003 µM, first compound 3 µM): 0.18%

Which results are given for `Cc1cc(C)c(CNC(=O)c2cc(-c3ccc(CN4CCOCC4)cc3)cc3c2cnn3C2CCCC2)c(=O)[nH]1` + CC[C@@]1(O)C(=O)OCc2c1cc1n(c2=O)Cc2cc3c(CN(C)C)c(O)ccc3nc2-1?
IC50 (second compound 0.003 µM): > 10000 nM; IC50 (second compound 0.00949 µM): > 10000 nM; IC50 (second compound 0.03 µM): 8490 nM; IC50 (second compound 0.0949 µM): < 31.6 nM; IC50 (second compound 0.3 µM): < 31.6 nM; viability, T/C (second compound 0.003 µM, first compound 0.0316 µM): 137%; viability, T/C (second compound 0.003 µM, first compound 0.1 µM): 111%; viability, T/C (second compound 0.003 µM, first compound 0.316 µM): 86.7%; viability, T/C (second compound 0.003 µM, first compound 1 µM): 87.8%; viability, T/C (second compound 0.003 µM, first compound 3.16 µM): 84.4%; viability, T/C (second compound 0.003 µM, first compound 10 µM): 82.9%; viability, T/C (second compound 0.00949 µM, first compound 0.0316 µM): 83%; viability, T/C (second compound 0.00949 µM, first compound 0.1 µM): 81.6%; viability, T/C (second compound 0.00949 µM, first compound 0.316 µM): 73.8%; viability, T/C (second compound 0.00949 µM, first compound 1 µM): 84.8%; viability, T/C (second compound 0.00949 µM, first compound 3.16 µM): 84.5%; viability, T/C (second compound 0.00949 µM, first compound 10 µM): 79.5%; viability, T/C (second compound 0.03 µM, first compound 0.0316 µM): 65.7%; viability, T/C (second compound 0.03 µM, first compound 0.1 µM): 66.6%; viability, T/C (second compound 0.03 µM, first compound 0.316 µM): 55.4%; viability, T/C (second compound 0.03 µM, first compound 1 µM): 57.7%; viability, T/C (second compound 0.03 µM, first compound 3.16 µM): 49.3%; viability, T/C (second compound 0.03 µM, first compound 10 µM): 51%; viability, T/C (second compound 0.0949 µM, first compound 0.0316 µM): 23.4%; viability, T/C (second compound 0.0949 µM, first compound 0.1 µM): 17.8%; viability, T/C (second compound 0.0949 µM, first compound 0.316 µM): 25.1%; viability, T/C (second compound 0.0949 µM, first compound 1 µM): 20.6%; viability, T/C (second compound 0.0949 µM, first compound 3.16 µM): 17.5%; viability, T/C (second compound 0.0949 µM, first compound 10 µM): 22.2%; viability, T/C (second compound 0.3 µM, first compound 0.0316 µM): 31.3%; viability, T/C (second compound 0.3 µM, first compound 0.1 µM): 29.5%; viability, T/C (second compound 0.3 µM, first compound 0.316 µM): 31.8%; viability, T/C (second compound 0.3 µM, first compound 1 µM): 30.9%; viability, T/C (second compound 0.3 µM, first compound 3.16 µM): 27.6%; viability, T/C (second compound 0.3 µM, first compound 10 µM): 30.6%
